The record followed here is publication PMC10571957, “αV-Integrin-Dependent Inhibition of Glioblastoma Cell Migration, Invasion and Vasculogenic Mimicry by the uPAcyclin Decapeptide” (Cancers, 2023).

One test relates to U251-MG cells. Nature of the test: Boyden chamber migration (chemotaxis), U251-MG. It counts as cell-based, human. The note with it: for migrated cells n°/field / migration, % of basal / migration, % of basal, average 2 expts / migration, % of basal, average expt 1 / migration, % of basal, average expt 2 / migration, % of basal, T-test list: sheet data scrambled; for migration, % of basal, average 2 expts: mean of 2 expts; for migration, % of basal, average expt 1: mean of expt 1; for migration, % of basal, average expt 2: mean of expt 2; for migration, % of basal, T-test list: single replicates. The protocol:
The migration and invasion assays were performed using Boyden chambers and 8 µm pore size PVP-free filters coated with 50 µg/mL of collagen type VI (Sigma), as previously described. For the invasion assays, collagen-coated filters were further coated with 50 µg/mL Matrigel^TM (Sigma). Briefly, 11 × 10^4 U87-MG, 4 × 10^4 U251-MG, or 4 × 10^4 U138-MG/sample were pre-treated for 40 min at 37 °C with the indicated effectors. Then, the cells were allowed to migrate for 3 h or to invade for 5 h at 37 °C toward 5% FBS in DMEM/0.1% BSA. At the end of both assays, the cells on the lower filter surface were fixed, stained with haematoxylin, and counted under an optical microscope (Zeiss Axiophot, Carl Zeiss, Milan, Italy) at 20× magnification. The migration and invasion experiments were conducted in triplicate for U87-MG and in duplicate for U251-MG and U138-MG. The migrated or invaded cells were reported as percentage of basal migration or invasion in the presence of DMEM/0.1% BSA, taken as 100%, and analyzed as reported in Section 2.11.
Figure 3 Inhibition of U87-MG, U251-MG, and U138-MG GBM cellular migration by uPAcyclin. Quantitative analysis of U87-MG (A), U251-MG (B), and U138-MG (C) directional migration. A total of 11 × 10^4 U87-MG/sample or 4 × 10^4 U251-MG or U138-MG/sample were pre-treated for 40 min at 37 °C with uPAcyclin or S-peptide at the indicated concentrations, anti-αV polyclonal (anti-αV Pclonal) or monoclonal (anti-αV MoAb) antibody, or anti-GAPDH, and anti-α2 monoclonal antibody (anti-α2 MoAb), and then assayed in Boyden chambers at 37 °C, either for basal (BSA) or directional 5% FBS-dependent migration for 3 h at 37 °C. At the end of incubation, the filters were processed as described in Methods. Basal migration was taken as 100% and all values were calculated relative to that (* p-value < 0.05; ** p-value < 0.005; *** p-value < 0.001).

The test system of another test is U87-MG cells. As to the kind of experiment: Vasculogenic mimicry (tube formation on Geltrex), U87-MG. It counts as cell-based, human. The note with it: for reduction in branching points: 24 h, Geltrex. As to the method:
The tube formation assay was performed in 96-well plates pre-coated with 50 µL/well of Geltrex^TM (Thermofisher, Scientific, Waltham, MA, USA), and polymerized for 30 min at 37 °C. Briefly, 3 × 10^4 U87-MG, 1.5 × 10^4 U251, and 1 × 10^4 C6 cells/100µL/well were plated onto Geltrex^TM and monitored at 37 °C for the indicated times. The specific effectors were included at time 0. The formation of vascular-like structures by Geltrex^TM-plated U87-MG and U251-MG cells was monitored for 24 h, whereas C6 cells were tested for 16 h. The evaluation of the branching point number, defined as the intersection of at least 3 tubes [24], was performed using the Inverted Microscope DMI Leica 6000 for the U87-MG and U251-MG cells and the Inverted Microscope Axiovert 25 for the C6 cells. At the indicated times, the number of “branching points” was assessed in 4/5 random fields using the ImageJ 1.52a Software.
Figure 6 Vascular mimicry formation by U87-MG and effect of uPAcyclin. (A) Representative images of U87-MG cells pre-treated or not (untreated) for 40 min at 37 °C with uPAcyclin (1 nM and 100 nM) and then plated onto Geltrex^TM in multiwell-96 (3 × 10^4/well). As a control, cells were grown in the presence of DMEM/10% FBS (No matrix) or with Geltrex^TM (Untreated, Untd). Images are taken at 24 h using the Inverted Microscope DMI Leica 6000 with 50× total magnification, scale bar: 75 µm. (B) The quantitation of branching points, defined as the intersection of at least three tubes [24], was performed at 4, 8, and 24 h either in control cells and cells pre-treated for 40 min at 37 °C with 10 pM, 1 nM, and 100 nM uPAcyclin before plating onto Geltrex^TM. (C) U87-MG cells were pre-treated with uPAcyclin or with S-uPAcyclin, at the indicated concentrations, plated onto Geltrex^TM and, 24 h later, the number of branching points was evaluated and reported in the histogram (* p-value < 0.05; ** p-value < 0.005; *** p-value < 0.001).

The mark [1] stands for this setting: 1 nM, 5% FBS, 3 h, expt 1, duplicates.
Where [2] appears, read: 1 nM, 5% FBS, 3 h, expt 2, duplicates.
Setting [3] is: 100 nM, 5% FBS, 3 h, expt 1, duplicates.
The mark [4] stands for this setting: 100 nM, 5% FBS, 3 h, expt 2, duplicates.

Where “and” joins values, the source holds several entries; their conditions need not be identical. Equal values may be shown once.

With “Ac-PS[EELKPEPK]-NH2 (sidechain bridge or staple) [S-uPAcyclin, scrambled control peptide]”, in the test on U251-MG cells (1 nM), the “migration, % of the basal, average all expts” value (“migration, % of the basal” for short) was found to be 176%; the “migration, % of basal, average 2 expts” value stood at 176.045%; the “migration, % of basal, average expt 1” value came out at 193%; the “migration, % of basal, average expt 2” value worked out at 159.091%. Further, in the test with U251-MG cells (1 nM), the “migration, % of basal, T-test list” value is 200 and 186 and 145 and 172. In addition, in the test with U251-MG cells (setting [1]), the “migrated cells n°/field” value is 28 cells n°/field and 26 cells n°/field; the “migration, % of basal” value is 200% and 186%. Moreover, in the test on U251-MG cells (setting [2]), the “migrated cells n°/field” value is 32 cells n°/field and 38 cells n°/field; the “migration, % of basal” value is 145% and 172%. For the same substance, in the test on U251-MG cells (100 nM), the “migration, % of the basal” value is 157%; the “migration, % of basal, average 2 expts” value amounted to 157.432%; the “migration, % of basal, average expt 1” value came out at 153.5%; the “migration, % of basal, average expt 2” value is on record as 161.364%. Also, the “migration, % of basal, T-test list” value with U251-MG cells (100 nM) is 164 and 143 and 159. For the same substance, in the test with U251-MG cells (setting [3]), the “migrated cells n°/field” value is 23 cells n°/field and 20 cells n°/field; the “migration, % of basal” value was 164% and 143%. Besides, in the test with U251-MG cells (setting [4]), the “migrated cells n°/field” value was 35 cells n°/field and 36 cells n°/field; the “migration, % of basal” value was 159% and 163%. In addition, in the test with U87-MG cells (scrambled control, U87-MG), the “reduction in branching points” value is recorded as “approximately 20%”.

Consider “Ac-K^1P[ESPPEELK^10]-NH2 (sidechain bridge or staple) [uPAcyclin]”, for which the inhibition of migration in the test on U251-MG cells (1 nM, U251-MG, 5% FBS, 3 h) is given as 70–80%. Also, the “migration, % of the basal” value in the test with U251-MG cells (1 nM) stood at 99%. For the same substance, the “migration, in words” value with U251-MG cells (100 nM, U251-MG, 5% FBS, 3 h) was “below background levels”. Besides, in the test on U251-MG cells (100 nM), the “migration, % of the basal” value worked out at 83%; the “migration, % of basal, average 2 expts” value was 99.2955%; the “migration, % of basal, average expt 1” value is 89.5%; the “migration, % of basal, average expt 2” value is recorded as 109.091%. Also, the “migration, % of basal, T-test list” value in the test on U251-MG cells (100 nM) is 86 and 93 and 95. Moreover, in the test with U251-MG cells (setting [3]), the “migrated cells n°/field” value was 12 cells n°/field and 13 cells n°/field; the “migration, % of basal” value was 86% and 93%. For the same substance, in the test with U251-MG cells (setting [4]), the “migrated cells n°/field” value is 27 cells n°/field and 21 cells n°/field; the “migration, % of basal” value was 123% and 95%. Further, the “branching point number, in words” value in the test on U87-MG cells (10 pM, 10 nM (legend: 1 nM), 100 nM, U87-MG, 4, 8, 24 h) is reported as “concentration-dependent reduction in the branching point number”. Besides, the “reduction in branching points” value with U87-MG cells (1 nM, U87-MG) is recorded as “approximately 60%”. For the same substance, in the test with U87-MG cells (100 nM, U87-MG, 14 h, serum-free), the “VM formation by time-lapse videomicroscopy, in words” value is “inhibited and delayed”. Moreover, the “reduction in branching points” value in the test on U87-MG cells (100 nM, U87-MG) is given as “approximately 60%”.
